{
  "source": "patent US9340568B2",
  "about": "“Solid forms of an antiviral compound” (Gilead Pharmasset LLC, priority 2013, dated 2016)",
  "assay": "Dynamic vapor sorption (DVS) moisture sorption isotherm",
  "type": "physicochemical",
  "details": "relative humidity (RH) of 90%, sorption cycle 1",
  "experimental": "DVS isotherms were generated on a Surface Measurement Systems Dynamic Vapor Sorption Advantage moisture sorption analyzer. Water adsorption and desorption were studied as a function of relative humidity over the range of 0 to 90% RH using 10% RH steps with a fixed equilibration time of 60 minutes per step.",
  "data": [
    {"molecule": "CC(C)OC(=O)[C@H](C)N[P@](=O)(OC[C@H]1O[C@@H](n2ccc(=O)[nH]c2=O)[C@](C)(F)[C@@H]1O)Oc1ccccc1", "note": "[Compound I, Form 7, (S)-isopropyl 2-((S)-(((2R,3R,4R,5R)-5-(2,4-dioxo-3,4-dihydropyrimidin-1(2H)-yl)-4-fluoro-3-hydroxy-4-methyltetrahydrofuran-2-yl)methoxy)(phenoxy)phosphorylamino) propanoate]", "values": [
      {"measurement": "change in mass as measured by dynamic vapor sorption (DVS)", "value": "about 0.15%"}
    ]},
    {"molecule": "CC(C)OC(=O)[C@H](C)N[P@](=O)(OC[C@H]1O[C@@H](n2ccc(=O)[nH]c2=O)[C@](C)(F)[C@@H]1O)Oc1ccccc1", "note": "[Compound I, Form 8, (S)-isopropyl 2-(((S)-(((2R,3R,4R,5R)-5-(2,4-dioxo-3,4-dihydropyrimidin-1(2H)-yl)-4-fluoro-3-hydroxy-4-methyltetrahydrofuran-2-yl)methoxy)(phenoxy)phosphoryl)amino) propanoate]", "values": [
      {"measurement": "change in mass as measured by dynamic vapor sorption (DVS)", "value": "about 0.17%"}
    ]}
  ]
}
